Data: patent publication US20260285850A1, “SUBSTITUTED OXAZOLIDINONES AND IMIDAZOLINONES AS HERBICIDES” (FMC CORPORATION, priority 2023, published 2026)

Experiments:
Assay type in all cases: in vivo
[1] = system: barnyardgrass (Echinochloa crus-galli); experiment: Test A preemergence soil spray, visual injury rating 0-100; settings: 10 days; for Barnyardgrass plant response rating (0 to 100 scale): 1000 g ai/ha, 0 = no effect, 100 = complete control
From the text: (§1) Seeds of plant species selected from barnyardgrass (Echinochloa crus-galli), blackgrass (Alopecurus myosuroides), corn (Zea mays), foxtail, giant (giant foxtail, Setaria faberi), green foxtail (Setaria viridis), goosegrass (Eleusine indica), kochia (Bassia scoparia), oat, wild (wild oat, Avena fatua), palmer (palmer amaranth, palmer pigweed, Amaranthus palmeri), ragweed (common ragweed, Ambrosia artemisiifolia), ryegrass, Italian (italian ryegrass, Lolium multiflorum), soybean (Glycine max) and wheat (Triticum aestivum) were planted into a blend of loam soil and sand and treated preemergence with a directed soil spray using test chemicals formulated in a non-phytotoxic solvent mixture which included a surfactant.
(§2) At the same time, plants selected from these crops and weed species and also galium (catchweed bedstraw, Galium aparine) and horseweed (Erigeron canadensis) were planted in pots containing the same blend of loam soil and sand and treated with postemergence applications of test chemicals formulated in the same manner. Plants ranged in height from 2 to 10 cm and were in the one- to two-leaf stage for the postemergence treatment. Treated plants and untreated controls were maintained in a greenhouse for 10 days, after which time all treated plants were compared to untreated controls and visually evaluated for injury. Plant response ratings, summarized in Table A, are based on a 0 to 100 scale where 0 is no effect and 100 is complete control. A dash (-) response means no test result.

[2] = system: blackgrass (Alopecurus myosuroides); experiment: as above; settings: 31 g ai/ha, 0 to 100 scale, 10 days
From the text: as §1, §2

corn (Zea mays) [3] = experiment: as above; settings: 31 g ai/ha, 0 to 100 scale, 10 days
From the text: as §1, §2

kochia (Bassia scoparia) [4] = experiment: as above; settings: 10 days; for Kochia plant response rating (0 to 100 scale): 1000 g ai/ha, 0 = no effect, 100 = complete control
From the text: as §1, §2

[5] = system: oat, wild (wild oat, Avena fatua); experiment: as above; settings: 31 g ai/ha, 0 to 100 scale, 10 days
From the text: as §1, §2

[6] = system: palmer (palmer amaranth, palmer pigweed, Amaranthus palmeri); experiment: as above; settings: 10 days; for Amaranth, Palmer / Pigweed, Palmer plant response rating (0 to 100 scale): 1000 g ai/ha, 0 = no effect, 100 = complete control
From the text: as §1, §2

[7] = system: ragweed (common ragweed, Ambrosia artemisiifolia); experiment: as above; settings: 31 g ai/ha, 0 to 100 scale, 10 days
From the text: as §1, §2

[8] = system: ryegrass, Italian (italian ryegrass, Lolium multiflorum); experiment: as above; settings: 10 days; for Ryegrass, Italian plant response rating (0 to 100 scale): 1000 g ai/ha, 0 = no effect, 100 = complete control
From the text: as §1, §2

soybean (Glycine max) [9] = experiment: as above; settings: 31 g ai/ha, 0 to 100 scale, 10 days
From the text: as §1, §2

[10] = system: wheat (Triticum aestivum); experiment: as above; settings: 31 g ai/ha, 0 to 100 scale, 10 days
From the text: as §1, §2

[11] = system: barnyardgrass (Echinochloa crus-galli); experiment: Test A postemergence application, visual injury rating 0-100; settings: Postemergence; for Barnyardgrass plant response rating: 1000 g ai/ha, 0 to 100 scale
From the text: as §1, §2

[12] = system: blackgrass (Alopecurus myosuroides); experiment: as above; settings: Postemergence; for Blackgrass plant response rating: 1000 g ai/ha, 0 to 100 scale
From the text: as §1, §2

corn (Zea mays) [13] = experiment: as above; settings: Postemergence
From the text: as §1, §2

[14] = system: galium (catchweed bedstraw, Galium aparine); experiment: as above; settings: Postemergence; for Galium plant response rating: 1000 g ai/ha, 0 to 100 scale
From the text: as §1, §2

[15] = system: horseweed (Erigeron canadensis); experiment: as above; settings: Postemergence; for Horseweed plant response rating: 1000 g ai/ha, 0 to 100 scale
From the text: as §1, §2

kochia (Bassia scoparia) [16] = experiment: as above; settings: Postemergence; for Kochia plant response rating: 1000 g ai/ha, 0 to 100 scale
From the text: as §1, §2

[17] = system: oat, wild (wild oat, Avena fatua); experiment: as above; settings: Postemergence
From the text: as §1, §2

[18] = system: palmer (palmer amaranth, palmer pigweed, Amaranthus palmeri); experiment: as above; settings: Postemergence
From the text: as §1, §2

[19] = system: ragweed (common ragweed, Ambrosia artemisiifolia); experiment: as above; settings: Postemergence
From the text: as §1, §2

[20] = system: ryegrass, Italian (italian ryegrass, Lolium multiflorum); experiment: as above; settings: Postemergence
From the text: as §1, §2

soybean (Glycine max) [21] = experiment: as above; settings: Postemergence
From the text: as §1, §2

[22] = system: wheat (Triticum aestivum); experiment: as above; settings: Postemergence
From the text: as §1, §2

[23] = system: green foxtail (Setaria viridis); experiment: Test A preemergence soil spray, visual injury rating 0-100; settings: 1000 g ai/ha, 10 days, 0 = no effect, 100 = complete control
From the text: as §1, §2

[24] = system: green foxtail (Setaria viridis); experiment: Test A postemergence application, visual injury rating 0-100; settings: Postemergence, 1000 g ai/ha, 0 to 100 scale, 10 days
From the text: as §1, §2

[25] = 31 g ai/ha, greenhouse 10 days, 0 no effect, 100 complete control
[26] = 125 g ai/ha, 10 days, 0 is no effect, 100 is complete control

CC1(C(=O)NC2C=CC(C(=O)NS(=O)(=O)c3ccccc3)C2)CN(c2cc(Cl)cc(Cl)c2)C(=O)O1 (centres unmarked) [Compound 86]
Barnyardgrass plant response rating ([1]; 31 g ai/ha, 0 to 100 scale): 30
Blackgrass plant response rating [2]: 0
Corn plant response rating (corn (Zea mays) [3]): 0
Kochia plant response rating (kochia (Bassia scoparia) [4]; 31 g ai/ha, 0 to 100 scale): 40
Oat, Wild plant response rating [5]: 0
Amaranth, Palmer (Pigweed, Palmer) plant response rating ([6]; 31 g ai/ha, 0 to 100 scale): 70
Ragweed plant response rating [7]: 10
Ryegrass, Italian plant response rating ([8]; 31 g ai/ha, 0 to 100 scale): 0
Soybean plant response rating (soybean (Glycine max) [9]): 0
Wheat plant response rating [10]: 0
Barnyardgrass plant response rating (0 to 100 scale) [11, 25]: 90
Barnyardgrass plant response rating (0 to 100 scale) [11, 26]: 90
Blackgrass plant response rating (0 to 100 scale) [12, 25]: 30
Blackgrass plant response rating (0 to 100 scale) [12, 26]: 70
Corn plant response rating (0 to 100 scale) (corn (Zea mays) [13]; [25]): 90
Corn plant response rating (0 to 100 scale) (corn (Zea mays) [13]; [26]): 100
Galium plant response rating (0 to 100 scale) [14, 25]: 70
Galium plant response rating (0 to 100 scale) [14, 26]: 80
Horseweed plant response rating (0 to 100 scale) [15, 25]: 40
Horseweed plant response rating (0 to 100 scale) [15, 26]: 50
Kochia plant response rating (0 to 100 scale) (kochia (Bassia scoparia) [16]; [25]): 80
Kochia plant response rating (0 to 100 scale) (kochia (Bassia scoparia) [16]; [26]): 90
Oat, Wild plant response rating (0 to 100 scale) [17, 25]: 60
Oat, Wild plant response rating (0 to 100 scale) [17, 26]: 90
Amaranth, Palmer / Pigweed, Palmer plant response rating (0 to 100 scale) [18, 25]: 90
Amaranth, Palmer / Pigweed, Palmer plant response rating (0 to 100 scale) [18, 26]: 90
Ragweed plant response rating (0 to 100 scale) [19, 25]: 60
Ragweed plant response rating (0 to 100 scale) [19, 26]: 80
Ryegrass, Italian plant response rating (0 to 100 scale) [20, 25]: 60
Ryegrass, Italian plant response rating (0 to 100 scale) [20, 26]: 70
Soybean plant response rating (0 to 100 scale) (soybean (Glycine max) [21]; [25]): 20
Soybean plant response rating (0 to 100 scale) (soybean (Glycine max) [21]; [26]): 60
Wheat plant response rating (0 to 100 scale) [22, 25]: 60
Wheat plant response rating (0 to 100 scale) [22, 26]: 80

COC(=O)C1C=CC(NC(=O)C2(C)CN(c3cc(F)cc(F)c3)C(=O)N2)C1 (centres unmarked) [Compound 180]
Barnyardgrass plant response rating (0 to 100 scale) [1]: 100
Foxtail, Green plant response rating (0 to 100 scale) [23]: 100
Kochia plant response rating (0 to 100 scale) (kochia (Bassia scoparia) [4]): 100
Amaranth, Palmer / Pigweed, Palmer plant response rating (0 to 100 scale) [6]: 100
Ryegrass, Italian plant response rating (0 to 100 scale) [8]: 100
Barnyardgrass plant response rating ([11]; 10 days): 100
Blackgrass plant response rating ([12]; 10 days): 90
Galium plant response rating ([14]; 10 days): 90
Foxtail, Green plant response rating [24]: 90
Horseweed plant response rating ([15]; 10 days): 90
Kochia plant response rating (kochia (Bassia scoparia) [16]; 10 days): 80

CC1(C(=O)NC2C=CC(C(=O)O)C2)CN(c2cc(F)cc(F)c2)C(=O)N1 (centres unmarked) [Compound 179]
Barnyardgrass plant response rating (0 to 100 scale) [1]: 100
Foxtail, Green plant response rating (0 to 100 scale) [23]: 100
Kochia plant response rating (0 to 100 scale) (kochia (Bassia scoparia) [4]): 100
Amaranth, Palmer / Pigweed, Palmer plant response rating (0 to 100 scale) [6]: 60
Ryegrass, Italian plant response rating (0 to 100 scale) [8]: 100
Barnyardgrass plant response rating ([11]; 10 days): 100
Blackgrass plant response rating ([12]; 10 days): 100
Galium plant response rating ([14]; 10 days): 90
Foxtail, Green plant response rating [24]: 90
Horseweed plant response rating ([15]; 10 days): 80
Kochia plant response rating (kochia (Bassia scoparia) [16]; 10 days): 90
